The source of these data is ChEMBL document CHEMBL5120896, “Hydroanthraquinones from Nigrospora sphaerica and Their Anti-inflammatory Activity Uncovered by Transcriptome Analysis” (J Nat Prod, 2022).

Calls of active or inactive are those of the source. The rule behind the calls is not given here.

The term IC50 denotes the point on the concentration scale where inhibition reaches its midpoint.

The test system of data set [1] is RAW264.7. Briefly: Cytotoxicity against mouse RAW264.7 cells assessed as reduction in cell viability at 80 uM incubated for 24 hrs by MTT assay. Format: toxicity, cell-based. To be noted: raw264.7, 24 h.
The test system of data set [2] is RAW264.7. As to the kind of experiment: Anti-inflammatory activity against mouse RAW264.7 cells assessed as inhibition of LPS-induced NO production at 60 uM pretreated for 1 hr followed by incubation with LPS and measured after 24 hrs by Griess reagent based analysis. Format: functional, cell-based. To be noted: time 25.0 hrs. On the technique in general: Griess reagent forms a coloured azo dye with nitrite.

In the next data set the test system is SW-620. As to the kind of experiment: Cytotoxicity against human SW-620 cells assessed as reduction in metabolically active cells by MTT assay. Format: functional, cell-based. A general note: Tetrazolium assays rely on reduction of a dye to a coloured formazan, in cell work by metabolically active cells.
The subject of data set [3] is RAW264.7. As to the kind of experiment: Anti-inflammatory activity against LPS-activated mouse RAW264.7 cells assessed as reduction of IL-1 beta gene expression at 7.5 to 30 uM pretreated for 1 hr followed by incubation with LPS for 24 hrs by qRT-PCR analysis. It is filed as functional, cell-based. To be noted: dose 7.5-30 µM, time 25.0 hrs. (Real-time PCR tracks product formation cycle by cycle.)

The test system of data set [4] is RAW264.7. Briefly: Anti-inflammatory activity against mouse RAW264.7 cells assessed as inhibition of LPS-induced ROS production at 10 to 40 uM pretreated for 1 hr followed by incubation with LPS for 24 hrs by DCFH-DA staining based fluorescence microscopy. Format: functional, cell-based. To be noted: dose 10-40 µM, time 25.0 hrs.
The subject of data set [5] is RAW264.7. Briefly: Anti-inflammatory activity against LPS-activated mouse RAW264.7 cells assessed as reduction of IL-6 gene expression at 7.5 to 30 uM pretreated for 1 hr followed by incubation with LPS for 24 hrs by qRT-PCR analysis. To be noted: dose 7.5-30 µM, time 25.0 hrs. It is filed as functional, cell-based.
In data set [6] the test system is RAW264.7. Briefly: Anti-inflammatory activity against LPS-activated mouse RAW264.7 cells assessed as reduction of NFkappaB p52 gene expression at 7.5 to 30 uM pretreated for 1 hr followed by incubation with LPS for 24 hrs by qRT-PCR analysis. It is filed as functional, cell-based. To be noted: dose 7.5-30 µM, time 25.0 hrs.
For data set [7], the system named is RAW264.7. Briefly: Anti-inflammatory activity against mouse RAW264.7 cells assessed as inhibition of LPS-induced NO production pretreated for 1 hr followed by incubation with LPS and measured after 24 hrs by Griess reagent based analysis. It is filed as functional, cell-based.
Data set [8] has as its system RAW264.7. As to the kind of experiment: Downregulation of NF-kappaB expression in LPS-activated mouse RAW264.7 cells at 7.5 to 30 uM pretreated for 1 hr followed by incubation with LPS for 24 hrs by western blot analysis. Format: functional, cell-based. To be noted: dose 7.5-30 µM, time 25.0 hrs.
In data set [9] the test system is RAW264.7. Briefly: Downregulation of phospho-IKKalpha/beta expression in LPS-activated mouse RAW264.7 cells at 7.5 to 30 uM pretreated for 1 hr followed by incubation with LPS for 24 hrs by western blot analysis. It is filed as functional, cell-based. To be noted: dose 7.5-30 µM, time 25.0 hrs.
For a further data set, the species on record is Danio rerio. As to the kind of experiment: Anti-inflammatory activity against Zebra fish embryo assessed as inhibition of LPS-induced ROS production at 5 uM pretreated with LPS followed by incubation with drug by fluorescence microscopy. Format: functional, organism-based.
The test system of data set [10] is RAW264.7. Briefly: Anti-inflammatory activity against mouse RAW264.7 cells assessed as inhibition of LPS-induced ROS production at 15 to 60 uM pretreated for 1 hr followed by incubation with LPS for 24 hrs by DCFH-DA staining based flow cytometry. Format: functional, cell-based. To be noted: dose 15-60 µM, time 25.0 hrs.
The test system of data set [11] is RAW264.7. As to the kind of experiment: Anti-inflammatory activity against LPS-activated mouse RAW264.7 cells assessed as reduction of TNF-alpha gene expression at 7.5 to 30 uM pretreated for 1 hr followed by incubation with LPS for 24 hrs by qRT-PCR analysis. It is filed as functional, cell-based. To be noted: dose 7.5-30 µM, time 25.0 hrs.
Data set [12] concerns RAW264.7. Briefly: Inhibition of NF-kappaB in mouse RAW264.7 cells assessed as inhibition of LPS-induced NF-kappaB p65 nuclear translocation at 15 to 60 uM pretreated for 1 hr followed by incubation with LPS for 24 hrs by immunofluorescence analysis. It is filed as cell-based. To be noted: dose 15-60 µM, time 25.0 hrs.

As for `COc1cc(O)c2c(c1O)[C@H]1O[C@]3(C)C[C@H]1[C@@H](C[C@@H]3O)C2=O`, in the data set with RAW264.7 [1], the Activity result is reported as “Toxic”.

As for `COc1cc(O)c2c(c1N)C(=O)C1=C(C[C@@H](O)[C@@](C)(O)C1)C2=O`, the outcome in the data set with RAW264.7 [2] was Active.

For `COc1cc(O)c2c(c1O)[C@H](OC)[C@H]1C[C@](C)(O)[C@H](O)C[C@@H]1C2=O`, the result in the data set with RAW264.7 [2] was Active.

As for `COc1cc(O)c2c(c1O)[C@@H](OC)[C@H]1C[C@](C)(O)[C@H](O)[C@@H](O)[C@@H]1C2=O`, in the data set on RAW264.7 [2], the result was Active.

As for `COc1cc(O)c2c(c1O)C(O)C1C[C@](C)(O)[C@H](O)CC1C2=O` (stereo partly drawn), the Activity result with RAW264.7 [1] is given as “Toxic”.

Turning to `C[C@]1(O)C[C@@]2(O)[C@H](C[C@H]1O)C(=O)c1c(O)ccc(O)c1[C@@H]2O`, the outcome in the data set on RAW264.7 [2] was Active.

Take `COc1cc(O)c2c(c1O)[C@@H](OC)[C@H]1C[C@](C)(O)[C@H](O)C[C@@H]1C2=O`: the outcome with RAW264.7 [2] was Active.

Regarding `COc1cc(O)c2c(c1O)C(=O)C1=C(C[C@@H](O)[C@@](C)(O)C1)C2=O`, the Activity entry with RAW264.7 [1] is “Toxic”.

Take `COc1cc(O)c2c(c1O)[C@H](OC)[C@H]1C[C@](C)(O)[C@H](O)[C@@H](O)[C@@H]1C2=O`: the result in the data set on RAW264.7 [2] was Active.

As for `COc1cc(O)c2c(c1O)[C@H](O)[C@H]1C[C@](C)(O)C[C@@H](O)[C@@H]1C2=O`, in the data set with RAW264.7 [1], the Activity entry is on record as “Toxic”.

As for `COC1=CC(=O)c2c(cc3c(c2O)[C@H](O)[C@@H](O)[C@@](C)(O)C3)C1=O`, the IC50 in the data set with SW-620 is 13.7 µM. Besides, in the data set with RAW264.7 [1], the Activity result is recorded as “Toxic”.

Turning to `COc1cc(O)c2c(c1O)C(=O)[C@H]1C[C@](C)(O)[C@H](O)[C@@H](O)[C@@H]1C2=O`, in the data set with RAW264.7 [2], the result was Active.

Take `COc1cc(O)c2c(c1O)[C@H](OC)[C@H]1C[C@](C)(O)[C@H](O)[C@@H](O)[C@H]1C2=O`: the Activity entry with RAW264.7 [1] is listed as “Toxic”.

With `COc1cc(O)c2c(c1O)[C@H](O)[C@H]1C[C@](C)(O)[C@H](O)C[C@H]1C2=O`, in the data set with RAW264.7 [2], the result was Active.

Regarding `COc1cc(O)c2c(c1O)[C@H](O)[C@H]1C[C@](C)(O)[C@H](O)[C@@H](O)[C@@H]1C2=O` [9ALPHA-HYDROXYHALOROSELLINIA A], the Activity result in the data set with RAW264.7 [1] is “Toxic”.

In the case of `COc1cc(O)c2c(c1O)[C@H](O)[C@H]1C[C@](C)(O)[C@H](O)[C@@H](O)[C@H]1C2=O`, the outcome in the data set on RAW264.7 [3], in the data set with RAW264.7 [4], in the data set with RAW264.7 [5], in the data set with RAW264.7 [6], in the data set filed under Danio rerio and in the data set with RAW264.7 [10] was Active. The result in the data set with RAW264.7 [2] and with RAW264.7 [11] was Active. Also, the half-maximal inhibitory concentration (IC50) with RAW264.7 [7] was found to be 7.5 µM. Moreover, the inhibition result in the data set on RAW264.7 [8], with RAW264.7 [9] and in the data set with RAW264.7 [12] was “Active” throughout.
